Data reported in US20100035856A1, “Beta-LACTAM-CONTAINING FORMULATIONS WITH INCREASED STABILITY IN AQUEOUS SOLUTION” (BAYER ANIMAL HEALTH GMBH, priority 2007, published 2010).

Assay: Stability of amoxicillin/K-clavulanate 4:1 in aqueous solution with urea
Type: physicochemical

## CC1(C)S[C@@H]2[C@H](NC(=O)[C@H](N)c3ccc(O)cc3)C(=O)N2[C@H]1C(=O)O [amoxicillin]
Amoxicillin in aqueous amoxiclav solution containing 40% urea, within 24 hours
  loss of active ingredient: less than 10%

## O=C(O)[C@H]1/C(=C/CO)O[C@@H]2CC(=O)N21 [clavulanic acid]
Aqueous amoxiclav solution with urea (FIG. 4)
  stability of clavulanic acid, effect of urea: not adversely affected at all
